The values that follow come from paper PMC6978637 (Saudi Pharmaceutical Journal : SPJ, 2019).

The target in data set [1] is FGFR3 (Homo sapiens, UniProt P22607). In words: biochemical. The data set is classed as biochemical. As to conditions: FGFR3-IC50.
Data set [2] has as its system FGFR3. In words: biochemical. It is filed as biochemical.
For data set [3], the target named is FGFR2 (Homo sapiens, UniProt P21802). In words: biochemical. As to conditions: FGFR2-IC50.
For data set [4], the system named is FGFR2. In words: biochemical. The following applies: for FGFR selectivity (in words): among FGFR1-4.
Data set [5] concerns FGFR1. In words: Z'-LYTE kinase enzyme inhibition assay, FGFR1. The following applies: for FGFR1-SI: selectivity index IC50/IC50, lowest IC50 of the compound = 1. The data set is classed as biochemical.
Data set [6] has as its target FGFR1 (Homo sapiens, UniProt P11362). In words: Z'-LYTE kinase enzyme inhibition assay, FGFR1. It is filed as biochemical. As to conditions: FGFR1-IC50.
Another data set relates to NIH-3T3 cells. In words: WST-1 cytotoxicity assay. It is filed as cell-based, mouse. The following applies: Mus musculus, NIH3T3, 48 h, read-out: NIH-3T3 Cells IC50.
The target of the next data set is FGFR4 (Homo sapiens, UniProt P22455). In words: biochemical. The data set is classed as biochemical.
Sequence of FGFR4 (P22455 22-802): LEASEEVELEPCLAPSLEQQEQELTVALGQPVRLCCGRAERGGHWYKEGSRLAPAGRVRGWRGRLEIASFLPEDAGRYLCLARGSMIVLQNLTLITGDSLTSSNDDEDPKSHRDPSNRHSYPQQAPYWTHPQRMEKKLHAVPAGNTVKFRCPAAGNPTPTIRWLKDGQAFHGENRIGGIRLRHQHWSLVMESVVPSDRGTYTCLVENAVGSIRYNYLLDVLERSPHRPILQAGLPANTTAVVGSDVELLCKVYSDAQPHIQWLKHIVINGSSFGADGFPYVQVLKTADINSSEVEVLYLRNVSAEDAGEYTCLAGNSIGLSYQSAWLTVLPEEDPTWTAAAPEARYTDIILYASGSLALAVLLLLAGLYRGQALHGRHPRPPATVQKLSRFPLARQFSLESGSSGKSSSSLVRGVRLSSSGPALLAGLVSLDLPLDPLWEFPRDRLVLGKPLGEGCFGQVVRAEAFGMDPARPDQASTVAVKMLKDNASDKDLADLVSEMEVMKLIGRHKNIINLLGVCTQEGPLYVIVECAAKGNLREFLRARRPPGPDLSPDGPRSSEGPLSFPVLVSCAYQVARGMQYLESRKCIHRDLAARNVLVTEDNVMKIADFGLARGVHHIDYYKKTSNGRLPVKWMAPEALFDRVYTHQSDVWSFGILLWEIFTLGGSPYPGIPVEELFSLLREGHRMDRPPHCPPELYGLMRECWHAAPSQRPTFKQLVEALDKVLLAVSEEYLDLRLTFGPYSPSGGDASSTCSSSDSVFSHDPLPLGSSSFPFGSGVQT
The nature of the next data set: WST-1 cytotoxicity assay. The data set is classed as cell-based, mouse. The following applies: mouse, NIH-3T3 cells (mouse embryonic fibroblasts).
The mark [7] stands for this setting: selectivity index IC50/IC50, lowest IC50 of the compound = 1.

Where two headings read alike, the source gives them in different places.

Sequence of FGFR3 (Homo sapiens, UniProt P22607) (P22607 23-806): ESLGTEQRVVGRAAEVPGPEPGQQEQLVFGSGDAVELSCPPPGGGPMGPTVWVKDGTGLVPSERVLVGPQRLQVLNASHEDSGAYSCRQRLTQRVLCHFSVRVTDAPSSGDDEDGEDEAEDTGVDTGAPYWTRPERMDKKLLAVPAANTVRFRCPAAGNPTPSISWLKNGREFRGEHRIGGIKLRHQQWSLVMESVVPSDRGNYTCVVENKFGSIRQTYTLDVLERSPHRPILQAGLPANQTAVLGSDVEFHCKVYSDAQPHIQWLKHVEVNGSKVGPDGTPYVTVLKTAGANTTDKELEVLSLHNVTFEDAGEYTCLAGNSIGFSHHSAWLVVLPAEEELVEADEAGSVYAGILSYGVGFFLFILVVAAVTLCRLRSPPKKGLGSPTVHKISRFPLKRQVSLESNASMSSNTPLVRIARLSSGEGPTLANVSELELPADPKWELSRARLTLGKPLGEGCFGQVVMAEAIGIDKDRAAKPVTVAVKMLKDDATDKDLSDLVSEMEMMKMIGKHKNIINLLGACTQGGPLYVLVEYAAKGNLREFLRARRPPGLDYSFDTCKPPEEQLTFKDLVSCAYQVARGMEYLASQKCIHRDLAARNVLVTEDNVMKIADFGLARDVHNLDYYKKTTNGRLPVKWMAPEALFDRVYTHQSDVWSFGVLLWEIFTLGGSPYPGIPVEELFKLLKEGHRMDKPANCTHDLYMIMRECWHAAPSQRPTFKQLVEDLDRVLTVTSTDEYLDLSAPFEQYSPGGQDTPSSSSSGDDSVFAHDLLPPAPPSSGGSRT
Sequence of FGFR1 (Homo sapiens, UniProt P11362) (P11362 22-822): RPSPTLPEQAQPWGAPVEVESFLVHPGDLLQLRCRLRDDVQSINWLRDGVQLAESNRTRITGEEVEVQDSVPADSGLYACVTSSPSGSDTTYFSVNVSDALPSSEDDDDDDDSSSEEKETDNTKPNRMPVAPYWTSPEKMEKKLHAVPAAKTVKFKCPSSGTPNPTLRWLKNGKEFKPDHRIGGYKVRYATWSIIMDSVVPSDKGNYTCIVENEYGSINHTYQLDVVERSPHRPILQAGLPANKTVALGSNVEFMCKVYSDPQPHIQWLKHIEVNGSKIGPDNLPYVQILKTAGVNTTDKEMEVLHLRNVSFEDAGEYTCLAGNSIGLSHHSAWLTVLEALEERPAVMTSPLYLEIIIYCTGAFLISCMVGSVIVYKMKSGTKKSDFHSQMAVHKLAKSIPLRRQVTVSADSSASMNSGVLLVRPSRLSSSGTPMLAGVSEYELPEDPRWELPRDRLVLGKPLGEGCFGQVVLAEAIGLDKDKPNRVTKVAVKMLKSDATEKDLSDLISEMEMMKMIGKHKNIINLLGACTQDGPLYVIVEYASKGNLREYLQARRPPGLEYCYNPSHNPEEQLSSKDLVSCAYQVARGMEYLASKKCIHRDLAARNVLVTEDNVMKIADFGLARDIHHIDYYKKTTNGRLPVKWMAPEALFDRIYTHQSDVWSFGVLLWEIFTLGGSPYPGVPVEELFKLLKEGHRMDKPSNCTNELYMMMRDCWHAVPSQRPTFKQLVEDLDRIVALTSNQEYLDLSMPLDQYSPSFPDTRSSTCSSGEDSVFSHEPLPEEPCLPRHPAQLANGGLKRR
Sequence of FGFR2 (Homo sapiens, UniProt P21802) (P21802 22-821): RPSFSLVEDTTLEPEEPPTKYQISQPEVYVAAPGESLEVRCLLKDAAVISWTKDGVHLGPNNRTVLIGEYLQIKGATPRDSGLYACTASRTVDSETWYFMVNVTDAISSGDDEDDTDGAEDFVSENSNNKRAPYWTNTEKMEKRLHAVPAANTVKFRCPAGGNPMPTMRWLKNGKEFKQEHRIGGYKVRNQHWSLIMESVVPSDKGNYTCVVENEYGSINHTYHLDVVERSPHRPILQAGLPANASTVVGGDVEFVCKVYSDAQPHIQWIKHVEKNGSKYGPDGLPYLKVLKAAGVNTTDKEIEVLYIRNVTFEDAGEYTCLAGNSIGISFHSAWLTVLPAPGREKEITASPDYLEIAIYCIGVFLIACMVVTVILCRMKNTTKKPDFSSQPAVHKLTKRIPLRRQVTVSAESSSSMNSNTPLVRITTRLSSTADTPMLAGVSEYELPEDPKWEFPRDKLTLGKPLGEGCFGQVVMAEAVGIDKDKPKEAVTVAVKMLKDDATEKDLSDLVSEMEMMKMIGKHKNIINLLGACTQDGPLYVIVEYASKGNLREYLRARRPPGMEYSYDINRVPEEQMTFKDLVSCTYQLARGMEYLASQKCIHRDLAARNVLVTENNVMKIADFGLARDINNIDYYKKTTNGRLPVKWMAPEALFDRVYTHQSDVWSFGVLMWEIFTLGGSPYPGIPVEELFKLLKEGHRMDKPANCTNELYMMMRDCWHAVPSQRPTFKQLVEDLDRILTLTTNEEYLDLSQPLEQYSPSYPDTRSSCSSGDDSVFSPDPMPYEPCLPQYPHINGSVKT

Broadly, the IC50 is the concentration needed to halve the response being measured. As to `O=C1Nc2ccc(-c3ccc4cc(O)ccc4c3)cc2/C1=C\c1ccc(N2CCOCC2)cc1` [Compound A1, (E)-5-(6-hydroxynaphthalen-2-yl)-3-(4-morpholinobenzylidene)indolin-2-one], the IC50 against FGFR3 [1] turned out to be 1.42 ± 0.423 µM; on FGFR2 [3], 0.00595 µM; against FGFR1 [6], 0.0198 ± 0.00332 µM; with NIH-3T3 cells it was 1.58 ± 0.171 µM; on FGFR4, 37.1 ± 0.965 µM. This compound came in with an FGFR3-SI in the data set with FGFR3 [2] of 238.648. Besides, in the data set on FGFR3 [2] (FGFR3 in compare to FGFR2), the “better inhibitory potency against FGFR2 than FGFR3” value stood at 238.6 fold. For the same compound, the “FGFR selectivity (in words)” value in the data set on FGFR2 [4] is recorded as “for FGFR2”. In the data set with FGFR2 [4] (setting [7]), this compound showed an FGFR2-SI of 1. For the same compound, the “better inhibitory potency against FGFR2 than FGFR1” value in the data set with FGFR1 [5] (FGFR1 in compare to FGFR2) amounted to 3.3 fold. This compound had an FGFR1-SI with FGFR1 [5] of 3.333. This compound also returned an FGFR4-SI at FGFR4 of 6247.898. Also, on FGFR4 (FGFR4 in compare to FGFR2), the “better inhibitory potency against FGFR2 than FGFR4” value is on record as 6247.9 fold.
Take `O=C1Nc2ccc(-c3ccc(-c4ccc(O)cc4)cc3)cc2/C1=C\c1ccc(N2CCOCC2)cc1` [Compound A2, (E)-5-(4'-hydroxy-[1,1'-biphenyl]-4-yl)-3-(4-morpholinobenzylidene)indolin-2-one]: the IC50 amounted to 3.46 ± 0.51 µM on FGFR3 [1]; 0.00844 ± 0.000237 µM on FGFR2 [3]; 0.219 ± 0.00432 µM at FGFR1 [6]; 0.949 ± 0.0247 µM in the data set with NIH-3T3 cells; 21.2 ± 0.351 µM on FGFR4. Moreover, the FGFR3-SI in the data set with FGFR3 [2] worked out at 409.791. Also, the “FGFR selectivity (in words)” value in the data set on FGFR2 [4] is “for FGFR2”. This compound had an FGFR2-SI with FGFR2 [4] (setting [7]) of 1. Besides, the FGFR1-SI in the data set with FGFR1 [5] turned out to be 25.948. Moreover, on FGFR4, the FGFR4-SI is 2514.228.
In the case of `CN1CCN(c2ccc(/C=C3/C(=O)Nc4ccc(-c5ccc6cc(O)ccc6c5)cc43)cc2)CC1` [Compound A13, (E)-5-(6-hydroxynaphthalen-2-yl)-3-[4-(4-methylpiperazin-1-yl)benzylidene]indolin-2-one], the IC50 amounted to 17.1 ± 0.294 µM against FGFR3 [1]; 1.02 ± 0.0673 µM on FGFR2 [3]; 0.007 ± 0.000206 µM against FGFR1 [6]; 30.1 ± 3.23 µM in the data set with NIH-3T3 cells; 8.99 ± 0.314 µM at FGFR4. The compound also registered an FGFR3-SI in the data set with FGFR3 [2] of 2442.824. The FGFR2-SI in the data set with FGFR2 [4] is recorded as 146.083. In addition, the “FGFR selectivity (in words)” value with FGFR1 [5] (among FGFR1-4) is “selectivity to FGFR1”. This compound also registered an FGFR1-SI in the data set with FGFR1 [5] of 1. The IC50 at 48 h in “WST-1 cytotoxicity assay” was greater than 1 µM. The compound further yielded an FGFR4-SI on FGFR4 of 1285.449.
As for `O=CN1CCN(c2ccc(/C=C3/C(=O)Nc4ccc(-c5ccc(C(=O)N6CCOCC6)cc5)cc43)cc2)CC1` [Compound A27, (E)-4-{4-{ {5-[4-(morpholine-4-carbonyl)phenyl]-2-oxoindolin-3-ylidene}methyl}phenyl}piperazine-1-carbaldehyde], the IC50 worked out at 0.131 ± 0.00423 µM at FGFR3 [1], 0.012 ± 0.000736 µM on FGFR1 [6], 1.23 ± 0.467 µM with NIH-3T3 cells and 9.24 ± 0.265 µM at FGFR4. The FGFR3-SI with FGFR3 [2] is recorded as 10.962. This compound also showed an FGFR1-SI in the data set with FGFR1 [5] of 1. Moreover, the IC50 at 48 h in “WST-1 cytotoxicity assay” is greater than 1 µM.
